Laboratory results reported in ChEMBL document CHEMBL1201862, “PubChem BioAssay data set” (2004).
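1) Cells in 96-well plates. 2) Compound, 48 h, 5 concentrations. 3) Linear interpolation between surrounding doses. 4) Unreached endpoint = highest concentration. GI50 = concentration required for 50% inhibition of growth.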 Calls of active or inactive are those of the source. Rule as the data show it: active = GI50 up to about 1.1 µM and inactive = higher.

Experiments:
Test in all cases: NCI-60 cell line screen, 48 h
RPMI-8226 = system: RPMI-8226
PC-3 = system: PC-3
Hs-578T = system: Hs-578T
NCI/ADR-RES = system: NCI/ADR-RES
UO-31 = system: UO-31
NCI-H522 = system: NCI-H522
786-0 = system: 786-0
MCF7 = system: MCF7
UACC-62 = system: UACC-62
HL-60 = system: HL-60
SF-539 = system: SF-539
MDA-N = system: MDA-N
MDA-MB-231 = system: MDA-MB-231
MDA-MB-435 = system: MDA-MB-435
NCI-H23 = system: NCI-H23
HOP-62 = system: HOP-62
HCT-116 = system: HCT-116
SW-620 = system: SW-620
A549 = system: A549
SR = system: SR
T47D = system: T47D
CAKI-1 = system: CAKI-1
Malme-3M = system: Malme-3M
EKVX = system: EKVX
SK-MEL-28 = system: SK-MEL-28
SN12C = system: SN12C
HOP-92 = system: HOP-92
OVCAR-8 = system: OVCAR-8
M14 = system: M14
SK-OV-3 = system: SK-OV-3
HT-29 = system: HT-29
DU-145 = system: DU-145
COLO 205 = system: COLO 205
NCI-H226 = system: NCI-H226
BT-549 = system: BT-549
SF-268 = system: SF-268
OVCAR-4 = system: OVCAR-4
LOX IMVI = system: LOX IMVI
SF-295 = system: SF-295
SNB-19 = system: SNB-19
HCC 2998 = system: HCC 2998
HCT-15 = system: HCT-15
KM12 = system: KM12
RXF 393 = system: RXF 393
ACHN = system: ACHN
SNB-75 = system: SNB-75
CCRF-CEM = system: CCRF-CEM
UACC-257 = system: UACC-257
IGROV-1 = system: IGROV-1
TK-10 = system: TK-10
SK-MEL-5 = system: SK-MEL-5
NCI-H460 = system: NCI-H460
K562 = system: K562
MOLT-4 = system: MOLT-4

Measured: GI50

NC(=S)SC1=NC(=O)C2(NN1)c1ccccc1-c1ccccc12
> 10 µM: HCT-15
inactive: RPMI-8226 5.12 µM | PC-3 > 10 µM | Hs-578T > 10 µM | NCI/ADR-RES 6.84 µM | UO-31 9.1 µM | NCI-H522 4.27 µM | 786-0 > 10 µM | MCF7 > 10 µM | UACC-62 > 10 µM | HL-60 > 10 µM | SF-539 > 10 µM | MDA-N > 10 µM | MDA-MB-231 > 10 µM | MDA-MB-435 > 10 µM | NCI-H23 > 10 µM | HOP-62 > 10 µM | HCT-116 > 10 µM | SW-620 > 10 µM | A549 > 10 µM | SR > 10 µM | T47D 1.67 µM | CAKI-1 > 10 µM | Malme-3M > 10 µM | EKVX 6.58 µM | SK-MEL-28 > 10 µM | SN12C > 10 µM | HOP-92 > 10 µM | OVCAR-8 > 10 µM | M14 > 10 µM | SK-OV-3 > 10 µM | HT-29 > 10 µM | DU-145 > 10 µM | COLO 205 > 10 µM | NCI-H226 > 10 µM | BT-549 > 10 µM | SF-268 > 10 µM | OVCAR-4 > 10 µM | LOX IMVI > 10 µM | SF-295 > 10 µM | SNB-19 > 10 µM | HCC 2998 > 10 µM | KM12 > 10 µM | RXF 393 > 10 µM | ACHN 5.36 µM | SNB-75 > 10 µM | CCRF-CEM > 10 µM | UACC-257 > 10 µM | IGROV-1 > 10 µM | TK-10 > 10 µM | SK-MEL-5 6.12 µM | NCI-H460 8.59 µM

Clc1cccc(-c2sc(-c3cccs3)cc2Cc2cccs2)c1
active: T47D 0.74 µM
inactive: RPMI-8226 > 10 µM | PC-3 > 10 µM | Hs-578T > 10 µM | NCI/ADR-RES > 10 µM | UO-31 > 10 µM | K562 > 10 µM | NCI-H522 > 10 µM | 786-0 > 10 µM | MCF7 3.71 µM | UACC-62 > 10 µM | HL-60 > 10 µM | SF-539 > 10 µM | MDA-N > 10 µM | MDA-MB-231 9.84 µM | MDA-MB-435 > 10 µM | NCI-H23 > 10 µM | HOP-62 > 10 µM | HCT-116 > 10 µM | SW-620 > 10 µM | A549 > 10 µM | SR > 10 µM | CAKI-1 > 10 µM | Malme-3M > 10 µM | EKVX > 10 µM | SK-MEL-28 > 10 µM | SN12C > 10 µM | HOP-92 > 10 µM | OVCAR-8 > 10 µM | M14 > 10 µM | SK-OV-3 > 10 µM | HT-29 > 10 µM | DU-145 > 10 µM | COLO 205 > 10 µM | NCI-H226 > 10 µM | BT-549 > 10 µM | SF-268 > 10 µM | MOLT-4 > 10 µM | OVCAR-4 > 10 µM | LOX IMVI > 10 µM | SF-295 > 10 µM | SNB-19 > 10 µM | HCC 2998 > 10 µM | KM12 > 10 µM | RXF 393 > 10 µM | ACHN > 10 µM | SNB-75 > 10 µM | CCRF-CEM > 10 µM | UACC-257 > 10 µM | IGROV-1 > 10 µM | TK-10 > 10 µM | SK-MEL-5 > 10 µM | NCI-H460 > 10 µM
2.79 µM: HCT-15
